Measured values: ChEMBL document CHEMBL1152676, “Combretastatin-like chalcones as inhibitors of microtubule polymerization. Part 1: synthesis and biological evaluation of antivascular activity” (Bioorg Med Chem, 2009)
Calls of active or inactive are those of the source. No cut-off for these calls is given here.

How the values were obtained:
K562 [1] = experiment: Cell cycle arrest in human K562 cells assessed as accumulation at G0/G1 phase at 20 nM after 24 hrs by propidium iodide staining-based flow cytometry; assay type: functional
[2] = Displacement of [3H]colchicine from tubulin assessed as bound colchicine at […] incubated in dark for 2 hrs by scintillation spectroscopy
[3] = Inhibition of tubulin assembly by Woods method
K562 [4] = experiment: Cell cycle arrest in human K562 cells assessed as accumulation at G2/M phase at 20 nM after 24 hrs by propidium iodide staining-based flow cytometry; assay type: functional
K562 [5] = experiment: Cell cycle arrest in human K562 cells assessed as accumulation at S phase at 20 nM after 24 hrs by propidium iodide staining-based flow cytometry; assay type: functional
[6] = Inhibition of tubulin polymerization assessed as appearance of twisted and shorter tubulin by electron microscopy
HUVEC = experiment: Antivascular activity in HUVEC cells assessed as change in cell shape at 1 uM after 1 hr by fluorescent-labeled high molecular weight F-dextran permeability assay; assay type: functional, cell-based; conditions: Homo sapiens
Vero = experiment: Binding affinity to tubulin in african green monkey Vero cells assessed as aberration of microtubule arrangement at 10 uM after 40 mins by immunohistochemistry; assay type: cell-based; conditions: Chlorocebus sabaeus
K562 [7] = experiment: Antiproliferative activity against human K562 cells after 5 days by MTT assay; assay type: functional, cell-based; conditions: Homo sapiens, K562, 120 h
[8] = Inhibition of tubulin polymerization assessed as appearance of shorter and ring shaped tubulin by electron microscopy

Activity [2]	IC50 [3]	Activity [6]	IC50 (K562 [7])	Activity [8]	SMILES	Activity (K562 [1])	Activity (K562 [4])	Activity (K562 [5])	Activity (HUVEC)	Activity (Vero)
9%	620 nM	Active	–	–	COc1ccc(/C=C/C(=O)c2cc(OC)c(OC)c(OC)c2)cc1O	12%	76%	12%	Active	–
6%	650 nM	–	2 nM	–	COc1ccc(/C=C(\C)C(=O)c2cc(OC)c(OC)c(OC)c2)cc1F	3%	88%	9%	–	Active
41%	1700 nM	–	360 nM	–	CO/C(=C\c1cc(F)c(OC)c(F)c1)C(=O)c1cc(OC)c(OC)c(OC)c1	30%	55%	15%	Active	–
2%	10000 nM	–	12 nM	–	COc1ccc(OC)c(C(=O)/C(C)=C/c2ccc(N(C)C)cc2)c1	10%	82%	8%	–	Active
42%	18000 nM	–	300 nM	–	COc1ccc(/C=C/C(=O)c2ccc(OC)c(OC)c2)c(OC)c1	26%	47%	27%	–	Active
8%	460 nM	–	–	Active	COc1ccc(/C=C(\C)C(=O)c2cc(OC)c(OC)c(OC)c2)cc1O	10%	83%	7%	Active	Active
12%	–	–	–	–	COc1ccc(C(=O)/C(C)=C/c2ccc(OC)c(OP(=O)(O)O)c2)cc1	–	–	–	Active	–
8%	470 nM	–	3.7 nM	–	CO/C(=C\c1ccc(OC)c(F)c1)C(=O)c1cc(OC)c(OC)c(OC)c1	41%	46%	13%	Active	–
46%	12000 nM	–	200 nM	–	COc1cc(OC)c(/C=C/C(=O)c2cc(OC)c(OC)c(OC)c2)c(OC)c1	10%	72%	18%	–	Active
10%	13000 nM	–	–	–	COc1cc(C(=O)/C=C/c2ccc3c(c2)OCCO3)cc(OC)c1OC	27%	50%	23%	–	Active

SMILES	Activity [2]	IC50 [3]	Activity [6]	IC50 (K562 [7])	Activity [8]	Activity (K562 [1])	Activity (K562 [4])	Activity (K562 [5])	Activity (HUVEC)	Activity (Vero)
CO/C(=C\c1ccc(OC)c(O)c1)C(=O)c1cc(OC)c(OC)c(OC)c1	5%	510 nM	–	1.5 nM	–	4%	84%	12%	Active	Active
